Results reported in the NIST ThermoML archive (doi:10.1016/j.jct.2011.08.009).
Several values for one entry are separate records, joined by “and”; a condition that tells them apart may be missing. Identical values can stand only once. Numbers after ± are expanded uncertainties.

Details: Liquid, Closed cell (Static) method

CCC(C)N (stereo unspecified) [2-butanamine]
Details | vapor or sublimation pressure
274.06 K | 6.81 ± 0.027 kPa
274.09 K | 6.804 ± 0.027 kPa
283.91 K | 11.46 ± 0.038 kPa
293.15 K | 18.43 ± 0.084 kPa
293.88 K | 19.21 ± 0.056 kPa
303.15 K | 29.11 ± 0.12 kPa
303.84 K | 30.04 ± 0.081 kPa and 30.03 ± 0.081 kPa
313.15 K | 44.25 ± 0.18 kPa
313.81 K | 45.47 ± 0.12 kPa and 45.38 ± 0.12 kPa
323.15 K | 65.05 ± 0.26 kPa
323.92 K | 66.77 ± 0.16 kPa
333.15 K | 92.82 ± 0.36 kPa
333.91 K | 95.07 ± 0.22 kPa and 95.08 ± 0.22 kPa and 95.1 ± 0.22 kPa
343.15 K | 128.99 ± 0.5 kPa
343.86 K | 132.08 ± 0.3 kPa and 132.05 ± 0.3 kPa
353.15 K | 175.09 ± 0.67 kPa
353.9 K | 179.16 ± 0.39 kPa and 178.99 ± 0.39 kPa
363.15 K | 232.69 ± 0.88 kPa

O [water]
Details | vapor or sublimation pressure [kPa]
273.15 K | 0.5817 ± 0.014
283.15 K | 1.186 ± 0.021
293.15 K | 2.281 ± 0.023
303.15 K | 4.172 ± 0.029
313.15 K | 7.294 ± 0.039
323.15 K | 12.25 ± 0.055
333.15 K | 19.84 ± 0.08
343.15 K | 31.11 ± 0.12
353.15 K | 47.37 ± 0.17
363.15 K | 70.25 ± 0.24

NC1CCCCC1 [cyclohexylamine]
Details | vapor or sublimation pressure
273.15 K | 0.2306 ± 0.011 kPa
274.3 K | 0.2512 ± 0.0031 kPa
283.15 K | 0.4646 ± 0.013 kPa
283.86 K | 0.4861 ± 0.005 kPa
293.15 K | 0.8833 ± 0.018 kPa
293.83 K | 0.9213 ± 0.0085 kPa
293.86 K | 0.9213 ± 0.0085 kPa
293.88 K | 0.9229 ± 0.0085 kPa and 0.9217 ± 0.0085 kPa
303.15 K | 1.596 ± 0.021 kPa
303.79 K | 1.661 ± 0.011 kPa
303.82 K | 1.66 ± 0.011 kPa
303.84 K | 1.661 ± 0.011 kPa
313.15 K | 2.756 ± 0.024 kPa
313.79 K | 2.852 ± 0.014 kPa
313.81 K | 2.854 ± 0.014 kPa
323.15 K | 4.573 ± 0.03 kPa
323.92 K | 4.755 ± 0.018 kPa
323.97 K | 4.757 ± 0.018 kPa
323.99 K | 4.757 ± 0.018 kPa and 4.758 ± 0.018 kPa
333.15 K | 7.32 ± 0.039 kPa
334 K | 7.563 ± 0.025 kPa
343.15 K | 11.35 ± 0.052 kPa
344 K | 12.08 ± 0.035 kPa
353.15 K | 17.98 ± 0.073 kPa
354.06 K | 17.65 ± 0.048 kPa
363.15 K | 25.06 ± 0.095 kPa
364.1 K | 25.96 ± 0.064 kPa
364.13 K | 25.94 ± 0.064 kPa and 25.96 ± 0.064 kPa
